Test results published in US10532066B2, “Surfactant lipids, compositions thereof, and uses thereof” (National Jewish Health, priority 2007, dated 2020).
“Also recorded” adds a separate entry of the source.

Tests used:
human CD14 = biological target: T1, human CD14 (Homo sapiens, UniProt P08571); experiment: CD14 binding to solid phase phospholipids (ELISA); conditions: for direct binding of CD14 to molecular species of PG: CD14 1 μg/ml, POPG = 100%; for binding of CD14 to solid phase lipid: varying CD14, 37° C. 1 h
T1 construct: purchased Cell Sciences Inc. (Canton, Mass.)
T1 sequence (P08571 20-345): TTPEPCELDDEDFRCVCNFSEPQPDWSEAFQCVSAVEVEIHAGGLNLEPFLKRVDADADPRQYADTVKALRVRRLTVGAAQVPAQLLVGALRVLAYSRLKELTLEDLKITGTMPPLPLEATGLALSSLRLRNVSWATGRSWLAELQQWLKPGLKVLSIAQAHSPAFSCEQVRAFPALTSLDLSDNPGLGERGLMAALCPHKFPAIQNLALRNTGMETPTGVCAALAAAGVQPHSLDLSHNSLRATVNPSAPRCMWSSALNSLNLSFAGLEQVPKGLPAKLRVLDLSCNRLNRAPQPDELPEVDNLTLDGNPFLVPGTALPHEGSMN
Description: FIG. 12. CD14 binds to solid phase lipids. […] Nonspecific binding was blocked with 20 mM Tris buffer (pH 7.4) containing 0.15 M NaCl, 5 mM CaCl2 (in the upper panel) or 2 mM EGTA (in the lower panel), and 5% (wt/vol) BSA (buffer A).
(§1) FIG. 13. PG Inhibits CD14 binding to solid phase LPS. (A) Various types of PG were coated onto microtiter plates, and incubated with CD14 (1 μg/ml) at 37° C. for 1 h. […] Types of PG shown on the graph are: dilauroylphosphatidylglycerol (DLPG), dimyristoyl-phosphatidylglycerol (DMPG), dipalmitoylphosphatidylglycerol (DPPG), and 16:0/18:1; palmitoyl-oleoyl-phosphatidylglycerol (POPG). […] The binding of CD14 to LPS was detected using anti-CD14 monoclonal antibody. The ELISA based absorbance of CD14 bound to LPS was defined as 100%.
The wells were then washed with 20 mM Tris buffer (pH 7.4) containing 0.15 M NaCl and 5 mM CaCl2 or 2 mM EGTA (buffer B), and 1 μg/ml anti-human CD14 IgG or anti-His antibody (50 μl/well) in buffer A was added and incubated overnight at 4° C., followed by the incubation with horseradish peroxidase (HRP)-labeled anti-mouse IgG (1:5000) for 1 h. After washing the wells with buffer B, the peroxidase reaction was finally performed using o-phenylenediamine as a substrate. The binding of CD14 or MD-2 to phospholipids was detected by measuring absorbance at 490 nm.

CD14 binding to LPS = biological target: T2, CD14 binding to LPS (Homo sapiens, UniProt P08571); experiment: Phospholipid competition for CD14 binding to solid phase LPS; conditions: CD14 1 μg/ml, liposomes 20 μg/ml
T2 construct: purchased Cell Sciences Inc. (Canton, Mass.)
T2 sequence (P08571 20-345): T1 sequence (P08571 20-345)
Description: as §1

[1] = tested on: MAPK, IkBα and MKP-1 in differentiated U937 cells; experiment: Western blot of LPS induced MAPK and IkBα phosphorylation and MKP-1 expression; assay type: cell-based, human; conditions: LPS 10 ng/ml; for LPS-induced MKP-1 expression / LPS-induced phosphorylation of p38, ERK, JNK and IkBα: liposomes 200 μg/ml; for LPS-induced phosphorylation of p38, ERK, JNK and IkBα: 15-60 min
Description: FIG. 4. POPG inhibits LPS induced MAPK and IkBα phosphorylation and MKP-1 expression. POPG liposomes (200 μg/ml) were added to monolayer cultures of differentiated U937 cells that received either no treatment or 10 ng/ml LPS. After incubating for the indicated time, cells were lysed using lysis buffer containing detergent, protease inhibitors and phosphatase inhibitors. Aliquots with 15 μg of protein from lysates were separated by SDS-PAGE and transferred onto nitrocellulose membranes. The amount of phosphorylation was detected using phospho-specific antibodies to p38MAPK, p42/p44 ERK, p46-p54 INK and phosphorylated IkBα. To determine equal loading of proteins between samples, the membranes were probed with rabbit polyclonal p46 INK, p42/p44 ERK, p38MAPK and IkBα antibodies. The expression of MKP-1 was detected with a polyclonal MKP-1 antibody.
FIG. 5. Quantification of POPG inhibition of LPS induced signaling. Western blot analysis as described in FIG. 4 was performed three or four times on separate samples and the intensity of phospho-p38, phospho-IkBα, phosphoERK, phospho JNK, phospho IkBα, total IkBα and MKP-1 was calculated using NIH Image J1.34 software.
FIG. 6. Molecular specificity in POPG action. Liposomes composed of POPC, DPPG or POPG were added to monolayer cultures of differentiated U937 cells that received either no treatment or 10 ng/ml LPS, as indicated. After 30 or 60 min cells were lysed and 15 μg of cellular protein from cultures was separated by SDS-PAGE and transferred onto nitrocellulose membranes. Phosphorylated and nonphosphorylated proteins were detected as described in FIG. 4.
FIG. 7. Comparative quantification of lipid dependent antagonism of LPS signaling. Western blot analysis was performed as described in FIG. 6 in three independent experiments. The intensity of the phosphorylated (p38, ERK, JNK and IkBα) and nonphosphorylated (total IkBα and MKP-1) proteins of interest was measured using NIH Image 0.1.34 software. Significance—*p<0.05, ** p<0.01.
Monolayers of unstimulated or stimulated macrophages were lysed on ice with 250 μl of ice-cold lysis buffer [50 mM Tris.HCl, pH 8.0, containing 137 mM NaCl, 10% (vol/vol) glycerol, 1% (vol/vol) Nonidet P-40, 1 mM NaF, 10 μg/ml leupeptin, 10 μg/ml aprotinin, 2 mM Na3VO4, and 1 mM phenylmethylsulfonyl fluoride (29). Insoluble nuclear material was pelleted by centrifugation at 14,000×g for 10 min at 4° C. and the supernatants were collected. 15 μg of protein from lysates was separated by SDS-PAGE and transferred onto nitrocellulose membranes (30). The blots were then washed in Tris-Tween-buffered saline [TTBS, 20 mM Tris-HCl buffer, pH 7.6, containing 137 mM NaCl and 0.05% (vol/vol) Tween 20], blocked with 5% (wt/vol) nonfat dry milk for 1 hour, and probed according to the method described by Towbin et. al. (30) with phospho-specific antibodies to p46-p54 JNK, p42/p44 ERK, and p38MAPK, or IkBα or with a polyclonal MKP-1 or IkBα antibodies in 5% (wt/vol) BSA dissolved in TTBS. With the use of horseradish peroxidase-conjugated secondary anti-rabbit or anti-mouse antibody, bound antibodies were detected by enhanced chemiluminescence (ECL plus, Amersham Biosciences, Piscataway, N.J.). To determine loading of proteins between samples, the membranes were probed with rabbit polyclonal p46 JNK, p42/p44 ERK, and p38MAPK antibodies.

| Compound | direct binding of CD14 to molecular species of PG (human CD14) | inhibition of CD14 binding to solid phase LPS (CD14 binding to LPS) | binding of CD14 relative to the levels of POPG binding (human CD14; 1.25 nmole lipid per well) | LPS-induced MKP-1 expression [1] | LPS-induced phosphorylation of p38, ERK, JNK and IkBα [1] | LPS-induced reduction (degradation) of steady state IkBα ([1]; POPG 200 μg/ml) | binding of CD14 to solid phase lipid (human CD14; 1.25 nmole lipid per well) |
| --- | --- | --- | --- | --- | --- | --- | --- |
| CCCCCCCCCCCCCC(=O)OCC(COP(=O)(O)OCC(O)CO)OC(=O)CCCCCCCCCCCCC (centres unmarked) [DMPG, dimyristoyl-phosphatidylglycerol] | strongest direct binding interactions | most effective inhibitors |  |  |  |  |  |
| CCCCCCCCCCCCCCCC(=O)OC[C@H](COP(=O)([O-])OCC[N+](C)(C)C)OC(=O)CCCCCCCCCCCCCCC [DPPC, dipalmitoyl-phosphatidylcholine, reference compound] |  |  | approximately 30% |  |  |  |  |
| CCCCCCCCCCCCCCCC(=O)OCC(COP(=O)(O)OCC(O)CO)OC(=O)CCCCCCCCCCCCCCC (centres unmarked) [DPPG, dipalmitoyl-phosphatidylglycerol, reference compound] | nearly the same extent as POPG and DMPG | weakly competes |  | neither POPC nor DPPG exerted a significant effect | neither POPC nor DPPG exerted a significant effect |  |  |
| CCCCCCCC/C=C\CCCCCCCC(=O)O[C@H](COC(=O)CCCCCCCCCCCCCCC)COP(=O)(O)OCC(O)CO (some centres unmarked) [POPG, palmitoyl-oleoyl-phosphatidylglycerol] | strongest direct binding interactions | almost completely inhibits; also recorded: most effective inhibitors |  | blocked the synthesis; also recorded: reduced to control levels; also recorded: potently inhibited | reduced; also recorded: eliminated the phosphorylation; also recorded: significantly reduces; also recorded: potently inhibited | abrogated the reduction; also recorded: remained constant | strongly bound |
| phosphatidylinositol [PI] |  | fails to compete |  | reduced | reduced |  | strongly bound |
